From publication PMC9667936, “Functional mapping of the 14-3-3 hub protein as a guide to design 14-3-3 molecular glues” (Chemical Science, 2022)
Where a SMILES comes first, the peptide text is derived from it. [ ]: non-standard residue; d: D form. ξ: configuration not given here. Phe(4-NO2) = N[C@@H](Cc1ccc([N+](=O)[O-])cc1)C(=O)O; ξAla(4-thiazolyl) = NC(Cc1cscn1)C(=O)O; pS = N[C@@H](COP(=O)(O)O)C(=O)O; β3hS = N[C@@H](CO)CC(=O)O; Nva = CCC[C@H](N)C(=O)O; ξβ3hS = NC(CO)CC(=O)O; βAla = NCCC(=O)O

Target: T1, 14-3-3γ (Homo sapiens, UniProt P61981)
T1 construct: made in house; host or cells: E. coli NiCo21 (DE3)
T1 sequence (P61981 1-247): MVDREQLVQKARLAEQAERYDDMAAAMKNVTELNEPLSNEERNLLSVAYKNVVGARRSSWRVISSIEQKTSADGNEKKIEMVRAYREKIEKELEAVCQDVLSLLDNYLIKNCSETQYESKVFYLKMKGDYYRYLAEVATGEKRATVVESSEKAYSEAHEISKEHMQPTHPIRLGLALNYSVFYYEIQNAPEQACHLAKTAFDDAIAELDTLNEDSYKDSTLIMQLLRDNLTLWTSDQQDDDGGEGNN
Assay: Fluorescence anisotropy (FA) binary binding study: 14-3-3 titrated to fluorescein-labelled peptide
Settings: for ΔΔG of point mutation (FA): relative to 1, mean ± SD, SD; for Affinity Kd / Kd: Table S4, point-mutated peptides; for ΔΔG of point mutation (FA) / Affinity Kd / Kd: FA; for Affinity Kd: 10 nM FITC-labelled peptide; for Kd: 14-3-3 titrated to 10 nM FITC-labelled peptide, HEPES pH 7.4, room temperature, 4PL fit, read-out: Affinity Kd; for ΔG (FA): Table S1
Method in brief: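 N-terminal His6-tagged full-length human 14-3-3γ expressed in E. coli, Ni-NTA purified and dialyzed into 25 mM HEPES pH 8.0, 100 mM NaCl, 10 mM MgCl2, 500 μM TCEP. Tag-cleaved 14-3-3σ truncated after T231 used for crystallography. Labelled peptides made by Fmoc solid-phase synthesis.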

[1] = Table S4, FA Kd / Kd of 1, replicate 1
[2] = Table S4, FA Kd / Kd of 1, replicate 2
[3] = Table S4, FA Kd / Kd of 1, replicate 3
[4] = Table S4, FA Kd of peptide divided by Kd of 1, mean of n = 3
[5] = Table S4, calculated from FA Kd, mean of n = 3
[6] = Table S4, from FA Kd, replicate 1
[7] = Table S4, from FA Kd, replicate 2
[8] = Table S4, from FA Kd, replicate 3
[9] = Table S4, ΔG minus ΔG of 1, FA, replicate 1
[10] = Table S4, ΔG minus ΔG of 1, FA, replicate 2
[11] = Table S4, ΔG minus ΔG of 1, FA, replicate 3
[12] = Table S4, ΔG of peptide minus ΔG of 1, FA, mean of n = 3

CCC[C@H](NC(=O)[C@H](N)CCCCN)C(=O)N[C@@H](Cc1ccc([N+](=O)[O-])cc1)C(=O)NC(Cc1cscn1)C(=O)N[C@@H](COP(=O)(O)O)C(=O)N[C@@H](Cc1ccccc1)C(=O)N[C@@H](CO)CC(=O)NCCC(=O)N[C@@H](Cc1ccc([N+](=O)[O-])cc1)C(=O)N[C@@H](CCCCN)C(N)=O (stereo partly drawn) [4b] (H-[dK][Nva][Phe(4-NO2)][ξAla(4-thiazolyl)][pS]F[β3hS][βAla][Phe(4-NO2)]K-NH2; N-terminus and C-terminus assumed)
ΔΔG of point mutation (FA): -0.1 ± 0.3 kcal/mol | Affinity Kd (replicate 1): 46 nM | Affinity Kd (replicate 2): 33 nM | Affinity Kd (replicate 3): 87 nM | Kd (mean of n = 3): 55 nM | Fold change to 1 [1]: 0.9 | Fold change to 1 [2]: 0.5 | Fold change to 1 [3]: 1.2 | Fold change to 1 [4]: 0.8 | ΔG [5]: -9.9 kcal/mol | ΔG [6]: -10.0 kcal/mol | ΔG [7]: -10.2 kcal/mol | ΔG [8]: -9.6 kcal/mol | ΔΔG to 1 [9]: -0.1 kcal/mol | ΔΔG to 1 [10]: -0.5 kcal/mol | ΔΔG to 1 [11]: 0.1 kcal/mol | ΔΔG to 1 [12]: -0.1 kcal/mol

CCC[C@H](NC(=O)[C@H](N)CCCCN)C(=O)N[C@@H](Cc1ccc([N+](=O)[O-])cc1)C(=O)NC(Cc1cscn1)C(=O)N[C@@H](COP(=O)(O)O)C(=O)N[C@@H](C)C(=O)N[C@@H](CO)CC(=O)NCCC(=O)N[C@@H](Cc1ccc([N+](=O)[O-])cc1)C(=O)N[C@@H](CCCCN)C(N)=O (stereo partly drawn) [4c] (H-[dK][Nva][Phe(4-NO2)][ξAla(4-thiazolyl)][pS]A[β3hS][βAla][Phe(4-NO2)]K-NH2; N-terminus and C-terminus assumed)
ΔΔG of point mutation (FA): 1.8 ± 0.1 kcal/mol | Affinity Kd (replicate 1): 1200 nM | Affinity Kd (replicate 2): 1200 nM | Affinity Kd (replicate 3): 1600 nM | Kd (mean of n = 3): 1300 nM | Fold change to 1 [1]: 24.0 | Fold change to 1 [2]: 17.0 | Fold change to 1 [3]: 21.3 | Fold change to 1 [4]: 20.8 | ΔG [5]: -8.0 kcal/mol | ΔG [6]: -8.1 kcal/mol | ΔG [7]: -8.1 kcal/mol | ΔG [8]: -7.9 kcal/mol | ΔΔG to 1 [9]: 1.9 kcal/mol | ΔΔG to 1 [10]: 1.7 kcal/mol | ΔΔG to 1 [11]: 1.8 kcal/mol | ΔΔG to 1 [12]: 1.8 kcal/mol

CCC[C@H](NC(=O)[C@H](N)CCCCN)C(=O)N[C@@H](Cc1ccc([N+](=O)[O-])cc1)C(=O)NC(Cc1cscn1)C(=O)N[C@@H](COP(=O)(O)O)C(=O)N[C@@H](Cc1ccc([N+](=O)[O-])cc1)C(=O)N[C@@H](CO)CC(=O)NCCC(=O)N[C@@H](Cc1ccc(O)cc1)C(=O)N[C@@H](CCCCN)C(N)=O (stereo partly drawn) [5a] (H-[dK][Nva][Phe(4-NO2)][ξAla(4-thiazolyl)][pS][Phe(4-NO2)][β3hS][βAla]YK-NH2; N-terminus and C-terminus assumed)
Affinity Kd (replicate 1): 1700 nM | Affinity Kd (replicate 2): 1200 nM | Affinity Kd (replicate 3): 1700 nM | Kd (mean of n = 3): 1500 nM | Fold change to 1 [1]: 33.2 | Fold change to 1 [2]: 17.1 | Fold change to 1 [3]: 22.5 | Fold change to 1 [4]: 24.2 | ΔG [5]: -7.9 kcal/mol | ΔG [6]: -7.9 kcal/mol | ΔG [7]: -8.1 kcal/mol | ΔG [8]: -7.9 kcal/mol | ΔΔG to 1 [9]: 2.1 kcal/mol | ΔΔG to 1 [10]: 1.7 kcal/mol | ΔΔG to 1 [11]: 1.8 kcal/mol | ΔΔG to 1 [12]: 1.9 kcal/mol | 14-3-3 binding affinity, result in words (replacement of nitro by hydroxy group at +4, compared with 5b, FA and ITC): did not restore the binding affinity

CCC[C@H](NC(=O)[C@H](N)CCCCN)C(=O)N[C@@H](Cc1ccc([N+](=O)[O-])cc1)C(=O)NC(Cc1cscn1)C(=O)N[C@@H](COP(=O)(O)O)C(=O)N[C@@H](Cc1ccc([N+](=O)[O-])cc1)C(=O)N[C@@H](CO)CC(=O)NCCC(=O)N[C@@H](Cc1ccccc1)C(=O)N[C@@H](CCCCN)C(N)=O (stereo partly drawn) [5b] (H-[dK][Nva][Phe(4-NO2)][ξAla(4-thiazolyl)][pS][Phe(4-NO2)][β3hS][βAla]FK-NH2; N-terminus and C-terminus assumed)
Affinity Kd (replicate 1): 1300 nM | Affinity Kd (replicate 2): 1200 nM | Affinity Kd (replicate 3): 1800 nM | Kd (mean of n = 3): 1400 nM | Fold change to 1 [1]: 24.3 | Fold change to 1 [2]: 16.9 | Fold change to 1 [3]: 24.9 | Fold change to 1 [4]: 22.0 | ΔG [5]: -8.0 kcal/mol | ΔG [6]: -8.0 kcal/mol | ΔG [7]: -8.1 kcal/mol | ΔG [8]: -7.8 kcal/mol | ΔΔG to 1 [9]: 1.9 kcal/mol | ΔΔG to 1 [10]: 1.7 kcal/mol | ΔΔG to 1 [11]: 1.9 kcal/mol | ΔΔG to 1 [12]: 1.8 kcal/mol

CCC[C@H](NC(=O)[C@H](N)CCCCN)C(=O)N[C@@H](Cc1ccc([N+](=O)[O-])cc1)C(=O)NC(Cc1cscn1)C(=O)N[C@@H](COP(=O)(O)O)C(=O)N[C@@H](Cc1ccc([N+](=O)[O-])cc1)C(=O)N[C@@H](CO)CC(=O)NCCC(=O)N[C@@H](C)C(=O)N[C@@H](CCCCN)C(N)=O (stereo partly drawn) [5c] (H-[dK][Nva][Phe(4-NO2)][ξAla(4-thiazolyl)][pS][Phe(4-NO2)][β3hS][βAla]AK-NH2; N-terminus and C-terminus assumed)
Affinity Kd (replicate 1): 3200 nM | Affinity Kd (replicate 2): 2200 nM | Affinity Kd (replicate 3): 2900 nM | Kd (mean of n = 3): 2800 nM | Fold change to 1 [1]: 62.1 | Fold change to 1 [2]: 31.0 | Fold change to 1 [3]: 39.8 | Fold change to 1 [4]: 44.3 | ΔG [5]: -7.6 kcal/mol | ΔG [6]: -7.5 kcal/mol | ΔG [7]: -7.7 kcal/mol | ΔG [8]: -7.5 kcal/mol | ΔΔG to 1 [9]: 2.4 kcal/mol | ΔΔG to 1 [10]: 2.0 kcal/mol | ΔΔG to 1 [11]: 2.2 kcal/mol | ΔΔG to 1 [12]: 2.2 kcal/mol

CCC[C@H](NC(=O)[C@H](N)CCCCN)C(=O)N[C@@H](Cc1ccc([N+](=O)[O-])cc1)C(=O)NC(Cc1cscn1)C(=O)N[C@@H](COP(=O)(O)O)C(=O)N[C@@H](Cc1ccc([N+](=O)[O-])cc1)C(=O)NC(CO)CC(=O)NCCC(=O)N[C@@H](Cc1ccc([N+](=O)[O-])cc1)C(=O)N[C@@H](CCCCN)C(N)=O (stereo partly drawn) [compound 1] (H-[dK][Nva][Phe(4-NO2)][ξAla(4-thiazolyl)][pS][Phe(4-NO2)][ξβ3hS][βAla][Phe(4-NO2)]K-NH2)
ΔG (FA) (calculated from FA KD, mean of n = 3): -10.5 kcal/mol | ΔG (FA) (from FA KD, replicate 1): -10.6 kcal/mol | ΔG (FA) (from FA KD, replicate 2): -10.6 kcal/mol | ΔG (FA) (from FA KD, replicate 3): -10.4 kcal/mol | ΔG (Table S2, calculated from FA KD, mean of n = 3): -10,53 kcal/mol | ΔG (Table S2, from FA KD, replicate 1): -10,61 kcal/mol | ΔG (Table S2, from FA KD, replicate 2): -10,56 kcal/mol | ΔG (Table S2, from FA KD, replicate 3): -10,41 kcal/mol | Affinity Kd (replicate 1): 52 nM | Affinity Kd (replicate 2): 71 nM | Affinity Kd (replicate 3): 74 nM | ΔG [5]: -9.8 kcal/mol | ΔG [6]: -9.9 kcal/mol | ΔG [7]: -9.7 kcal/mol | ΔG [8]: -9.7 kcal/mol | free binding energy ΔG (FA) (from FA KD): -10.5 kcal/mol
